In patent US9775353B2, “Pesticidally active heterocyclic derivatives with sulphur containing substituents” (Syngenta Participations AG, priority 2014, dated 2017):

How the values were obtained:
Assay type in all cases: in vivo
[1] = test system: Bemisia tabaci (cotton white fly); assay: Example B5: Activity against Bemisia tabaci (adulticide contact activity, preventative); settings: foliar, 168 h, cotton leaf discs sprayed, adult white flies, mortality 7 DAT
Description: Example B5: Activity Against Bemisia tabaci (Cotton White Fly) (Adulticide Contact Activity, Preventative), Adult Cotton leaf discs were placed on agar in a 24-well microtiter plate and sprayed with test solutions. After drying, the leaf discs were infested with adult white flies. After an incubation period of 7 DAT, samples were checked for mortality and special effects (e.g. phytotoxicity).

[2] = test system: Myzus persicae (green peach aphid); assay: Example B8: Activity against Myzus persicae (feeding/residual contact, preventive, mixed population); settings: foliar, 144 h, sunflower leaf discs sprayed, mixed ages, mortality 6 DAT
Description: Example B8: Activity Against Myzus persicae (Green Peach Aphid) (Feeding/Residual Contact Activity, Preventive), Mixed Population Sunflower leaf discs were placed on agar in a 24-well microtiter plate and sprayed with test solutions. After drying, the leaf discs were infested with an aphid population of mixed ages. After an incubation period of 6 DAT, samples were checked for mortality and special effects (e.g. phytotoxicity).

[3] = test system: Plutella xylostella (diamond back moth); assay: Example B2: Activity against Plutella xylostella (larvicide, feeding/residual contact, preventive); settings: 120 h, artificial diet, L2 larvae, larval mortality, antifeedant, growth regulation after 5 days
Description: Example B2: Activity Against Plutella xylostella (Diamond Back Moth) (Larvicide, Feeding/Residual Contact Activity, Preventive) 24-well microtiter plate (MTP) with artificial diet was treated with test solutions by pipetting. After drying, the MTPs were infested with L2 larvae (10-15 per well). After an incubation period of 5 days, samples were checked for larval mortality, antifeedant and growth regulation.

[4] = test system: Spodoptera littoralis (Egyptian cotton leaf worm); assay: Example B7: Activity against Spodoptera littoralis (systemic activity); settings: 120 h, systemic via lettuce roots in agar, mortality, repellent effect, feeding behavior, growth regulation 5 days after infestation
From the text: Example B7: Activity Against Spodoptera littoralis (Egyptian Cotton Leaf Worm) (Systemic Activity) Test compounds were applied by pipette into 24 well plates and mixed with agar. Lettuce seeds were placed on the agar and the multi well plate is closed by another plate which contains also agar. After 7 days the roots have absorbed the compound and the lettuce has grown into the lid plate. The lettuce leaves were now cut off into the lid plate. Spodoptera eggs were pipetted through a plastic stencil on a humid gel blotting paper and the plate closed with it. The samples are checked for mortality, repellent effect, feeding behavior, and growth regulation 5 days after infestation.

[5] = test system: Diabrotica balteata (corn root worm); assay: Example B3: Activity against Diabrotica balteata (larvae L2 on maize sprouts, feeding/contact, preventative); settings: 120 h, maize sprouts sprayed, larval mortality and growth regulation after 5 days
Description: Example B3: Activity Against Diabrotica balteata (Corn Root Worm) (Larvae L2 on Maize Sprouts, Feeding/Contact, Preventative) Maize sprouts, placed on an agar layer in 24 well micro titer plates were treated with test solutions by spraying. After drying, the MTPs were infested with L2 larvae (6-10 per well). After an incubation period of 5 days, samples were checked for larval mortality and growth regulation.

[6] = test system: Euschistus heros (neotropical brown stink bug); assay: Example B10: Activity against Euschistus heros; settings: 120 h, soybean leaf sprayed, N-2 nymphs, mortality 5 days after infestation
Description: Example B10: Activity Against Euschistus heros (Neotropical Brown Stink Bug) Soybean leaf on agar in 24-well microtiter plates were sprayed with aqueous test solutions prepared from 10,000 ppm DMSO stock solutions. After drying the leaf were infested with N-2 nymphs. The samples were assessed for mortality 5 days after infestation.

[7] = test system: Spodoptera littoralis (Egyptian cotton leaf worm); assay: Example B1: Activity against Spodoptera littoralis (larvicide, feeding/residual contact, preventive); settings: foliar, 72 h, cotton leaf discs sprayed, L1 larvae, mortality, repellent effect, feeding behaviour, growth regulation 3 days after treatment
From the text: Example B1: Activity Against Spodoptera littoralis (Egyptian Cotton Leaf Worm) (Larvicide, Feeding/Residual Contact Activity, Preventive) Cotton leaf discs were placed on agar in a 24-well microtiter plate and sprayed with test solutions. After drying, the leaf discs were infested with 5 L1 larvae. The samples were checked for mortality, repellent effect, feeding behaviour, and growth regulation 3 days after treatment (DAT).

| SMILES | pest or weed control at 400 ppm [1] | pest or weed control at 400 ppm [2] | pest or weed control at 400 ppm [3] | pest or weed control at 12.5 ppm [4] | pest or weed control at 400 ppm [5] | pest or weed control at 400 ppm [6] | pest or weed control at 400 ppm [7] |
| --- | --- | --- | --- | --- | --- | --- | --- |
| CCS(=O)(=O)c1cc(-c2ccc(Cl)cc2)cnc1-c1nc2cc(C(F)(F)F)ncc2n1C [Compound P1, 2-[5-(4-chlorophenyl)-3-ethylsulfonyl-2-pyridyl]-3-methyl-6-(trifluoromethyl)imidazo[4,5-c]pyridine] | > 80% | > 80% | > 80% | ≥ 80% | > 80% | > 80% | > 80% |
| CCS(=O)(=O)c1cc(-c2ccc(C(F)(F)F)cc2)cnc1-c1nc2cc(C(F)(F)F)ncc2n1C [Compound P2] | > 80% | > 80% | > 80% | ≥ 80% | > 80% | > 80% | > 80% |
| CCS(=O)(=O)c1cc(-c2cccc(C(F)(F)F)c2)cnc1-c1nc2cc(C(F)(F)F)ncc2n1C [Compound P3] | > 80% | > 80% | > 80% | ≥ 80% | > 80% | > 80% | > 80% |
| CCS(=O)(=O)c1cc(-c2ccc(Cl)c(Cl)c2)cnc1-c1nc2cc(C(F)(F)F)ncc2n1C [Compound P6] | – | > 80% | > 80% | ≥ 80% | > 80% | > 80% | > 80% |
| CCS(=O)(=O)c1cc(-c2ccc(Cl)cc2Cl)cnc1-c1nc2cc(C(F)(F)F)ncc2n1C [Compound P8] | > 80% | > 80% | > 80% | – | > 80% | – | > 80% |
| CCS(=O)(=O)c1cc(-c2ccc(OC)c(F)c2)cnc1-c1nc2cc(C(F)(F)F)ncc2n1C [Compound P9] | – | > 80% | > 80% | – | > 80% | – | > 80% |
| CCS(=O)(=O)c1cc(-c2cc(C)c(OC)c(C)c2)cnc1-c1nc2cc(C(F)(F)F)ncc2n1C [Compound P10] | – | – | > 80% | – | > 80% | – | – |
| CCS(=O)(=O)c1cc(-c2cc(F)ccc2F)cnc1-c1nc2cc(C(F)(F)F)ncc2n1C [Compound P11] | – | > 80% | > 80% | – | > 80% | > 80% | > 80% |
| CCS(=O)(=O)c1cc(-c2ccccc2Cl)cnc1-c1nc2cc(C(F)(F)F)ncc2n1C [Compound P12] | – | > 80% | > 80% | – | > 80% | > 80% | > 80% |
| CCS(=O)(=O)c1cc(-c2ccc(Cl)cc2C)cnc1-c1nc2cc(C(F)(F)F)ncc2n1C [Compound P14, 2-[5-(4-chloro-2-methyl-phenyl)-3-ethylsulfonyl-2-pyridyl]-3-methyl-6-(trifluoromethyl)imidazo[4,5-c]pyridine] | – | > 80% | > 80% | – | > 80% | > 80% | > 80% |
| CCSc1cc(-c2ccc(Cl)cc2)cnc1-c1nc2cc(C(F)(F)F)ncc2n1C [Compound P15, 2-[5-(4-chlorophenyl)-3-ethylsulfanyl-2-pyridyl]-3-methyl-6-(trifluoromethyl)imidazo[4,5-c]pyridine] | – | – | > 80% | – | > 80% | > 80% | > 80% |
| CCS(=O)(=O)c1cc(-c2cccc(-c3nnc(C)o3)c2)cnc1-c1nc2cc(C(F)(F)F)ncc2n1C [Compound P20] | > 80% | > 80% | > 80% | – | – | – | > 80% |
| CCS(=O)(=O)c1cc(-c2ccc(Cl)cc2)ccc1-c1nc2cc(C(F)(F)F)ncc2n1C [Compound P22] | > 80% | – | > 80% | ≥ 80% | > 80% | > 80% | > 80% |
| CCS(=O)(=O)c1cc(-c2cccc(-c3nnco3)c2)cnc1-c1nc2cc(C(F)(F)F)ncc2n1C [Compound P23] | – | > 80% | > 80% | ≥ 80% | > 80% | > 80% | > 80% |
| CCS(=O)(=O)c1cc(-c2ccc([Si](C)(C)C)cc2)cnc1-c1nc2cc(C(F)(F)F)ncc2n1C [Compound P26] | – | – | > 80% | – | > 80% | – | – |
| CCS(=O)(=O)c1cc(-c2ccc(C(F)(F)F)cc2)ccc1-c1nc2cc(C(F)(F)F)ncc2n1C [Compound P27] | > 80% | – | > 80% | ≥ 80% | > 80% | > 80% | > 80% |
| CCS(=O)(=O)c1cc(-c2ccccc2SC)cnc1-c1nc2cc(C(F)(F)F)ncc2n1C [Compound P28] | – | > 80% | > 80% | – | > 80% | – | – |
| CCS(=O)(=O)c1cc(-c2cccc(CC#N)c2)cnc1-c1nc2cc(C(F)(F)F)ncc2n1C [Compound P29] | – | > 80% | – | – | – | – | – |
| CCS(=O)(=O)c1cc(-c2ccccc2OCCSC)cnc1-c1nc2cc(C(F)(F)F)ncc2n1C [Compound P30] | – | – | – | – | – | – | > 80% |
| CCS(=O)(=O)c1cc(-c2ccc(CC#N)cc2)cnc1-c1nc2cc(C(F)(F)F)ncc2n1C [Compound P31] | – | > 80% | > 80% | – | – | – | – |
| CCSc1ccc(-c2cnc(-c3nc4cc(C(F)(F)F)ncc4n3C)c(S(=O)(=O)CC)c2)cc1 [Compound P32] | – | > 80% | > 80% | – | > 80% | > 80% | > 80% |
| CCSc1cc(-c2ccc(C(F)(F)F)cc2)ccc1-c1nc2cc(C(F)(F)F)ncc2n1C [Compound P33] | – | – | – | – | > 80% | > 80% | – |
| CCS(=O)(=O)c1cc(-c2cc(F)c(F)cc2F)cnc1-c1nc2cc(C(F)(F)F)ncc2n1C [Compound P35] | – | – | > 80% | ≥ 80% | > 80% | > 80% | > 80% |
| CCS(=O)(=O)c1cc(-c2ccc(-n3cccn3)cc2)cnc1-c1nc2cc(C(F)(F)F)ncc2n1C [Compound P37] | – | > 80% | > 80% | – | > 80% | > 80% | > 80% |
| CCc1ccccc1-c1cnc(-c2nc3cc(C(F)(F)F)ncc3n2C)c(S(=O)(=O)CC)c1 [Compound P38] | – | – | > 80% | – | > 80% | – | – |
